The test system of data set [1] is dog. Conditions: Chronic toxicity, beagle, Oral, Capsule, dose end: 104 week, group: systemic.
The subject of data set [2] is mouse. Conditions: Carcinogenicity, cd1, Oral, Feed, dose end: 78 week, group: systemic.
Data set [3] has as its system rat. Conditions: Combined chronic toxicity/carcinogenicity, sprague dawley, Oral, Feed, dose end: 24 month, group: systemic.
Data set [4] has as its system dog. Conditions: Subchronic oral toxicity in nonrodent, beagle, Capsule, dose end: 98 day, group: systemic.
The subject of data set [5] is rat. Conditions: Subchronic oral toxicity in rodents, sprague dawley, Feed, dose end: 13 week, group: systemic.
For data set [6], the system named is mouse. Conditions: Carcinogenicity; Oral; Feed; dose end: 24 month; group: systemic; systemic / pathology microscopic / skin / fibrosarcoma + systemic / clinical chemistry / aminopyrine-n-demethylase / aminopyrine-n-….
In the next data set the test system is rabbit. Conditions: Prenatal developmental toxicity study, dutch, Oral, Gavage/Intubation, dose end: 18 GD.
The subject of data set [7] is rat. Conditions: Combined chronic toxicity/carcinogenicity; fischer; Oral; Feed; dose end: 24 month; group: systemic; systemic / clinical chemistry / alanine aminotransferase (alt/sgpt) / alanine aminotransferase (alt/sgpt) + systemic / in life observation….
Setting [8] is: systemic / in life observation / clinical signs / emesis + systemic / in life observation / clinical signs / salivation + systemic / in life….
Where [9] appears, read: systemic / in life observation / clinical signs / soft stools + systemic / in life observation / clinical signs / emesis.
Setting [10] is: systemic / in life observation / body weight / body weight + systemic / organ weight / liver / relative to body weight + systemic / clinical….
Where [11] appears, read: systemic / pathology gross / liver / enlarged + systemic / pathology microscopic / liver / glycogen deposition.
The mark [12] stands for this setting: systemic / pathology gross / liver / enlarged + systemic / pathology microscopic / liver / glycogen deposition + systemic / clinical ….
Where [13] appears, read: systemic / clinical chemistry / aspartate aminotransferase (ast/sgot) / aspartate aminotransferase (ast/sgot).
[14] abbreviates: group: developmental, developmental / developmental malformation / bone / [other] + developmental / developmental malformation / bone / full supernumerary + ….
[15] abbreviates: group: maternal, reproductive / reproductive performance / aborted / aborted + reproductive / reproductive performance / resorptions / resorptions + systemic….

Usually LOAEL stands for the lowest tested level that showed an adverse finding. A word on the NOAEL: it is the highest tested level that showed no adverse finding. On to `CC(C)Oc1cccc(NC(=O)c2ccccc2C(F)(F)F)c1` [Flutolanil], for which the LOAEL turned out to be 250 mg/kg/day with dog [1] (setting [8]); 839 mg/kg/day with mouse [2] (systemic / in life observation / body weight / body weight gain); 460 mg/kg/day in the data set with rat [3] (systemic / in life observation / body weight / body weight + systemic / organ weight / liver / relative to body weight); 400 mg/kg/day with dog [4] (setting [11]); 339 mg/kg/day in the data set with rat [5] (systemic / organ weight / liver / absolute + systemic / organ weight / liver / relative to body weight). Besides, the NOAEL in the data set on dog [1] (setting [8]) is 50 mg/kg/day; in the data set with mouse [2] (systemic / in life observation / body weight / body weight gain + systemic / organ weight / liver / absolute + systemic / organ weight / …), 168 mg/kg/day; in the data set on rat [3] (setting [10]), 86.9 mg/kg/day; with dog [4] (setting [12]), 80 mg/kg/day; in the data set on rat [5] (systemic / organ weight / liver / absolute + systemic / organ weight / liver / relative to body weight + systemic / clinical chemistry / …) it was 44 mg/kg/day. In addition, the LEL with dog [1] (setting [9]) stood at 50 mg/kg/day; in the data set on mouse [2] (systemic / pathology microscopic / liver / vacuolization), 162 mg/kg/day; with rat [3] (setting [10]), 460 mg/kg/day; in the data set with dog [4] (setting [11]), 400 mg/kg/day; in the data set with rat [5] (setting [13]), 37 mg/kg/day. In addition, the NEL was less than 50 mg/kg/day in the data set on dog [1] (setting [9]); 32 mg/kg/day in the data set on mouse [2] (systemic / pathology microscopic / liver / vacuolization + systemic / in life observation / body weight / body weight gain); 86.9 mg/kg/day in the data set with rat [3] (systemic / organ weight / liver / relative to body weight); 80 mg/kg/day in the data set with dog [4] (setting [12]); less than 37 mg/kg/day with rat [5] (setting [13]).

Regarding `Cn1cc(-c2ccccc2)c(=O)c(-c2cccc(C(F)(F)F)c2)c1` [Fluridone], in the data set with mouse [6], the LEL stood at 50 mg/kg/day, the lowest-observed-adverse-effect level (LOAEL) was greater than 50 mg/kg/day, the NEL was found to be 15 mg/kg/day and the NOAEL was no less than 50 mg/kg/day. For the same compound, in the data set with rabbit (setting [14]), the LEL worked out at 750 mg/kg/day, the LOAEL was greater than 750 mg/kg/day, the NEL was determined as 300 mg/kg/day and the no-observed-adverse-effect level (NOAEL) was no less than 750 mg/kg/day. In the data set on rabbit (setting [15]), the LEL stood at 300 mg/kg/day, the LOAEL amounted to 300 mg/kg/day, the NEL was 125 mg/kg/day and the NOAEL is 125 mg/kg/day. Moreover, in the data set with rat [7], the LEL is 25.1 mg/kg/day, the LOAEL was greater than 80.8 mg/kg/day, the NEL came out at 7.65 mg/kg/day and the no-observed-adverse-effect level (NOAEL) is no less than 80.8 mg/kg/day.

Values taken from EPA's ToxRefDB 2.
